Assay [1] concerns the target 5-hydroxytryptamine receptor 1D (Rattus norvegicus, UniProt P28565).
Assay [2] deals with 5-hydroxytryptamine receptor 7 (Rattus norvegicus, UniProt P32305).
Assay [3] has as its target 5-hydroxytryptamine receptor 2A (Rattus norvegicus, UniProt P14842).
Assay [4] deals with 5-hydroxytryptamine receptor 6 (Rattus norvegicus, UniProt P31388).
In assay [5] the target is 5-hydroxytryptamine receptor 1B (Rattus norvegicus, UniProt P28564).
Assay [6] has as its target T1, 5-hydroxytryptamine receptor 3A (Rattus norvegicus, UniProt P35563).
T1 sequence (P35563 whole entry): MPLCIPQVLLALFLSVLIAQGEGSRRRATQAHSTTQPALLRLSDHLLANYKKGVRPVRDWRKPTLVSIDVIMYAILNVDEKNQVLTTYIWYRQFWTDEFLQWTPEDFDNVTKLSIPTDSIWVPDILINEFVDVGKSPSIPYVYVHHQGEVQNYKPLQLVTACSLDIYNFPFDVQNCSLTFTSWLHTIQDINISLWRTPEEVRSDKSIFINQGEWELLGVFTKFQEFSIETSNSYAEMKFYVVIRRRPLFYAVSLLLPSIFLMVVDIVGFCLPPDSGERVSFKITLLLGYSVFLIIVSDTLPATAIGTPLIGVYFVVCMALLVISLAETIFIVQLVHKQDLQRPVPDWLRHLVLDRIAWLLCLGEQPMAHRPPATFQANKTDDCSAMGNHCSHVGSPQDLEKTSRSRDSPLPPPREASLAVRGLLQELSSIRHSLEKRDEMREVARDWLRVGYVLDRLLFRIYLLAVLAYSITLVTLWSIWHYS

The structures appear in SMILES notation.

Chain of 5-hydroxytryptamine receptor 2A (P14842 whole entry): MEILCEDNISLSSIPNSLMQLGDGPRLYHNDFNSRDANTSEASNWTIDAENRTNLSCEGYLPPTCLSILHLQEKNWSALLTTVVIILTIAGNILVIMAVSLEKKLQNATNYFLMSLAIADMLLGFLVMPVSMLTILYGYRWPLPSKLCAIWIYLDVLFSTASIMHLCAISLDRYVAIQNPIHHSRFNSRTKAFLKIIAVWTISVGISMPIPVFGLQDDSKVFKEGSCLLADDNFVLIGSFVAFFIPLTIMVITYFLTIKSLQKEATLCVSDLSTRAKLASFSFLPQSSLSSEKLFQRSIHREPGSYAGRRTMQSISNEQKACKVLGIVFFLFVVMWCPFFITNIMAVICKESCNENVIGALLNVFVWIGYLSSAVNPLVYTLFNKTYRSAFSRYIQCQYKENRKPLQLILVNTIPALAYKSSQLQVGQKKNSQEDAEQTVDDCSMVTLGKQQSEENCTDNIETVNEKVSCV
Chain of 5-hydroxytryptamine receptor 7 (P32305 whole entry): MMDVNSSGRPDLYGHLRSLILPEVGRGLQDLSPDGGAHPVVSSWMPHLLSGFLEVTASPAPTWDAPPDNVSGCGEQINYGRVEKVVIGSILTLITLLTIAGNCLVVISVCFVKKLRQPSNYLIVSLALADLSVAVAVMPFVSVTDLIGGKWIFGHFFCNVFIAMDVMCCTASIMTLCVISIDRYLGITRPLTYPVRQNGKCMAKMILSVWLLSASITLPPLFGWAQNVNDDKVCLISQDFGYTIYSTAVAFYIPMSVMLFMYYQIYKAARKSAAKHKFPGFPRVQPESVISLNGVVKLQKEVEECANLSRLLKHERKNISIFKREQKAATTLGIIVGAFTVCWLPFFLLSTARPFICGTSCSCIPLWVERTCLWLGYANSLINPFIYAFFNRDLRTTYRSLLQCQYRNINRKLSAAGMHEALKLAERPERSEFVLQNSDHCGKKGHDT
Chain of 5-hydroxytryptamine receptor 6 (P31388 whole entry): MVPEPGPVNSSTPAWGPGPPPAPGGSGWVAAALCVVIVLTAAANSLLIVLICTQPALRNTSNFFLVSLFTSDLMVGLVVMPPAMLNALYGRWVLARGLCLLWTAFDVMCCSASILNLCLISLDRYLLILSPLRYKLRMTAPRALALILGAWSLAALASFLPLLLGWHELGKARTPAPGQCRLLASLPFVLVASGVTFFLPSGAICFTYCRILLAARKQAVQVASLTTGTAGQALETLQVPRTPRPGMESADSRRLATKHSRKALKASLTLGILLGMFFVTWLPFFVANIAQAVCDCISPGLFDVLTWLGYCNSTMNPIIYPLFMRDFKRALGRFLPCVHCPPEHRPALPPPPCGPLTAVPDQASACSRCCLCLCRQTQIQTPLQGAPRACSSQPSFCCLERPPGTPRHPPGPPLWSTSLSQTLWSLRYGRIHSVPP
Chain of 5-hydroxytryptamine receptor 1B (P28564 whole entry): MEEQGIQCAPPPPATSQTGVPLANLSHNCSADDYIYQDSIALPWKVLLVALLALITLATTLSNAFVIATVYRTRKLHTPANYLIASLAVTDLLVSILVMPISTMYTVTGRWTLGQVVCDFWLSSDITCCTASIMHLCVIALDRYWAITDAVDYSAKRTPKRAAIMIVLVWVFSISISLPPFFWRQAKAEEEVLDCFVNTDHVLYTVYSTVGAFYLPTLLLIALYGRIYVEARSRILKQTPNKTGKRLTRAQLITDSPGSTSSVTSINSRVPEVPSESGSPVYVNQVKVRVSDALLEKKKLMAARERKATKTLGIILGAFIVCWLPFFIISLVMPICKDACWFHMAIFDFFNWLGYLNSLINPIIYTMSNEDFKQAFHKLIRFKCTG
Chain of 5-hydroxytryptamine receptor 1D (P28565 whole entry): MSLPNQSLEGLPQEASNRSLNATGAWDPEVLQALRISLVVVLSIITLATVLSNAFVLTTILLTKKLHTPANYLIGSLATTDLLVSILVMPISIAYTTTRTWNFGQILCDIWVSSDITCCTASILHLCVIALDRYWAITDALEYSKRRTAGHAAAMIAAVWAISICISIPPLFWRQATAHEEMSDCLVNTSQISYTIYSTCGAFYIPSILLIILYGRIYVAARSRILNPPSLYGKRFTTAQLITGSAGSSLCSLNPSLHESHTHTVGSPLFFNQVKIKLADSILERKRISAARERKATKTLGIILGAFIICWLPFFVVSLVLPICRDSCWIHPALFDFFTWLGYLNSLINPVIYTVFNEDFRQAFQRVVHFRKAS

`Clc1cccc(N2CCNCC2)c1` [mCPP]: the Ki was 1.58 µM in assay [1]; 0.251 µM in assay [2]; 0.2 µM in assay [3]; 2.51 µM in assay [4]; 0.251 µM in assay [5]; 0.1 µM in assay [6].

In general, Ki refers to the dissociation constant of the complex between target and ligand, obtained from inhibition or displacement. Read a high Ki as weaker binding.

The values are drawn from BindingDB's records for doi:10.1046/j.1468-2982.2001.00157.x (Roche Bioscience, 2001).
